System: PSMA-expressing cells (LNCAP)
Assay: Antibody-drug conjugate (ADC) cell killing assay, PSMA-expressing cells (CellTiter Glo)
Format: cell-based
Details: 100 nM ADC plus serial diluted PSMA targeted CyTaC (max 20 μM), 48 hours, FIG. 3
Excerpt: An antibody-drug conjugate (ADC) cell killing assay was developed to screen cotinine targeted ADCs in a 384-well plate format. This assay utilized (i) an anti-cotinine antibody having a heavy chain sequence of SEQ ID NO: 9 and a light chain sequence of SEQ ID NO: conjugated with Deruxtecan and (ii) a Prostate Specific Membrane Antigen (PSMA) Cytotoxicity Targeting Chimera (CyTaC) to target PSMA expressing cells for death. The structures of the ADC and PSMA targeted CyTaC used in this experiment are shown below:
To screen ADCs, 10,000 PSMA-expressing cells (LNCAP) or 10,000 non-expressing cells (CHO) in media (RPMI 1640 (Gibco) containing 10% fetal bovine serum (Gibco)) were transferred to a 384-well plate (Greiner Bio-One). To each well containing cells, 100 nM ADC was added. Next, serial diluted PSMA targeted CyTaC (maximum concentration of 20 μM) was added to appropriate wells. The plates were then incubated for 48 hours at 37° C. with 5% CO2. Following the 48 hour incubation, an equal volume of CellTiter Glo (Promega) was added to each well and the plates were read on a PheraStar Plate Reader (BMG) to measure cell viability via Luminescence signal. Signal: background was calculated by dividing the signal of a test well by the signal obtained when no CyTaC was added. The % cell death was calculated by: (1-(test well signal/no CyTaC signal))*100. […]

CN1C(=O)C[C@H](C(=O)NCCO[C@H]2CC[C@H](OCCCC(=O)N[C@H]3CC[C@H](C(=O)N[C@@H](Cc4ccc5ccccc5c4)C(=O)NCCCC[C@H](NC(=O)N[C@@H](CCC(=O)O)C(=O)O)C(=O)O)CC3)CC2)[C@H]1c1cccnc1 [PSMA targeted CyTaC]
ADC mediated cell killing (% cell death): ADC mediated cell killing of PSMA expressing cells
